Test system: vancomycin monoclonal antibody
Assay: Cross-reaction rate measurement of the test strip of Embodiment 1 (interference testing in human serum containing 20 μg/mL vancomycin)
Assay type: binding, Balb/c mouse
Experimental: 20 ul of sample is accurately pipetted into 180 ul of sample diluent and mixed fully.
80 uL of sample solution to be tested is accurately pipetted into a test strip loading well with a micropipette, and reaction is carried out at 20° C. for 15 min. The test strip is inserted into a load carrier of a fluorescence detector, an item to be tested is selected by touching a display screen, a “Detection Start” button is pressed, the fluorescence detector automatically scans the test strip, and a test result is read through the display screen of an instrument or printed.
After the test is completed, the instrument obtains the ratio of the time-resolved fluorescent intensity of the detection area on the test strip to the time-resolved fluorescent intensity of the quality control area, and calculates the content of vancomycin in the sample to be tested according to the following formula. Y=(A−D)/[1+(x/C)^B]+D
Several vancomycin analogs and common drugs are selected for interference testing.

[1] = test concentration 1,000 μg/mL, added to human serum with vancomycin 20 μg/mL

| SMILES | Cross reaction rate [1] [%] | further results |
| --- | --- | --- |
| CC(=O)Oc1ccccc1C(=O)O [Aspirin] | <0.001 | – |
| NC(=O)N1c2ccccc2C=Cc2ccccc21 [Carbamazepine] | <0.001 | – |
| C[C@H]1O[C@@H](O[C@H]2[C@@H](O)C[C@H](O[C@H]3[C@@H](O)C[C@H](O[C@H]4CC[C@@]5(C)[C@H](CC[C@@H]6[C@@H]5C[C@@H](O)[C@]5(C)[C@@H](C7=CC(=O)OC7)CC[C@]65O)C4)O[C@@H]3C)O[C@@H]2C)C[C@H](O)[C@@H]1O [Digoxin] | <0.001 | – |
| CC(C)C[C@@H](N)C(=O)N[C@H]1C(=O)N[C@@H](CC(N)=O)C(=O)N[C@H]2C(=O)N[C@H]3C(=O)N[C@H](C(=O)N[C@H](C(=O)O)c4cc(O)cc(O)c4-c4cc3ccc4O)[C@H](O)c3ccc(c(Cl)c3)Oc3cc2cc(c3O[C@@H]2O[C@H](CO)[C@@H](O)[C@H](O)[C@H]2O[C@H]2C[C@](C)(N)[C@H](O)[C@H](C)O2)Oc2ccc(cc2Cl)[C@H]1O [Norvancomycin] | – | Cross reaction rate (test concentration 100 μg/mL, added to human serum with vancomycin 20 μg/mL): <1% |
| O=C1NC(=O)C(c2ccccc2)(c2ccccc2)N1 [Phenytoin] | <0.001 | – |
| O=C(O)c1ccccc1O [Salicylic acid] | <0.001 | – |
| Cn1c(=O)c2[nH]cnc2n(C)c1=O [Theophylline] | <0.001 | – |
| CCCC(CCC)C(=O)O [Valproic acid] | <0.001 | – |
| CN[C@H](CC(C)C)C(=O)N[C@H]1C(=O)N[C@@H](CC(N)=O)C(=O)N[C@H]2C(=O)N[C@H]3C(=O)N[C@H](C(=O)N[C@H](C(=O)O)c4cc(O)cc(O)c4-c4cc3ccc4O)[C@H](O)c3ccc(c(Cl)c3)Oc3cc2cc(c3O[C@@H]2OC(CO)[C@@H](O)[C@H](O)[C@H]2O[C@H]2C[C@](C)(N)[C@H](O)[C@H](C)O2)Oc2ccc(cc2Cl)[C@H]1O.Cl (stereo partly drawn) [Vancomycin] | – | Cross reaction rate (test concentration 20 μg/mL, human serum sample): 100% |

Reference: patent US11162959B2, “Time-resolved fluorescent immunochromatographic test strip for detecting vancomycin as well as preparation method and application thereof” (BEIJING DIAGREAT BIOTECHNOLOGIES CO., LTD., priority 2019, dated 2021)
